Patent US10870647B2, “Imidazopyridine derivative, method for preparing same, and pharmaceutical composition containing same as active ingredient for preventing or treating cancer” (DAEGU-GYEONGBUK MEDICAL INNOVATION FOUNDATION, priority 2016, dated 2020)

Experiments:
Assay in all cases: Kinase selectivity, scanMAX Kinase assay panel (DiscoverX), % control at 1 uM
Type in all cases: binding
[1] = molecular target: T1, scanMAX Kinase assay panel (Homo sapiens, UniProt O00506); conditions: YSK1; 1 uM; read-out: Percent Control (%)
T1 construct: purchased DiscoverX
T1 sequence (O00506 whole entry): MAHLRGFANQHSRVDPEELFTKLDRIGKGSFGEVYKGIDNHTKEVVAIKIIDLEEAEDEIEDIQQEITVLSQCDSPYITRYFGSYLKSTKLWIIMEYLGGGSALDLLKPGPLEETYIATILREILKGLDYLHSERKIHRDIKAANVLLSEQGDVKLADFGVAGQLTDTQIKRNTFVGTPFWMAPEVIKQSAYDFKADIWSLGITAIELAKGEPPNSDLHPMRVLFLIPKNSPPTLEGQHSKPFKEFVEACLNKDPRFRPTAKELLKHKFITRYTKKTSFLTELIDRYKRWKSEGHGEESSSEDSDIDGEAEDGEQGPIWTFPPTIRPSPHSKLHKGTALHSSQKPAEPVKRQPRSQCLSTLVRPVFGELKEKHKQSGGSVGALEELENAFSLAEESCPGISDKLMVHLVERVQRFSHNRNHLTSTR
In short: (§1)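 Compounds were tested at 1 uM in DMSO against each enzyme in the panel. Percent control was calculated as (compound − positive control)/(negative control − positive control) × 100, and a compound was scored active on a kinase when this value fell below 35.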

[2] = molecular target: T2, scanMAX Kinase assay panel (Homo sapiens, UniProt Q99683); conditions: ASK1; 1 uM; read-out: Percent Control (%)
T2 construct: purchased DiscoverX
T2 sequence (Q99683 1-1374): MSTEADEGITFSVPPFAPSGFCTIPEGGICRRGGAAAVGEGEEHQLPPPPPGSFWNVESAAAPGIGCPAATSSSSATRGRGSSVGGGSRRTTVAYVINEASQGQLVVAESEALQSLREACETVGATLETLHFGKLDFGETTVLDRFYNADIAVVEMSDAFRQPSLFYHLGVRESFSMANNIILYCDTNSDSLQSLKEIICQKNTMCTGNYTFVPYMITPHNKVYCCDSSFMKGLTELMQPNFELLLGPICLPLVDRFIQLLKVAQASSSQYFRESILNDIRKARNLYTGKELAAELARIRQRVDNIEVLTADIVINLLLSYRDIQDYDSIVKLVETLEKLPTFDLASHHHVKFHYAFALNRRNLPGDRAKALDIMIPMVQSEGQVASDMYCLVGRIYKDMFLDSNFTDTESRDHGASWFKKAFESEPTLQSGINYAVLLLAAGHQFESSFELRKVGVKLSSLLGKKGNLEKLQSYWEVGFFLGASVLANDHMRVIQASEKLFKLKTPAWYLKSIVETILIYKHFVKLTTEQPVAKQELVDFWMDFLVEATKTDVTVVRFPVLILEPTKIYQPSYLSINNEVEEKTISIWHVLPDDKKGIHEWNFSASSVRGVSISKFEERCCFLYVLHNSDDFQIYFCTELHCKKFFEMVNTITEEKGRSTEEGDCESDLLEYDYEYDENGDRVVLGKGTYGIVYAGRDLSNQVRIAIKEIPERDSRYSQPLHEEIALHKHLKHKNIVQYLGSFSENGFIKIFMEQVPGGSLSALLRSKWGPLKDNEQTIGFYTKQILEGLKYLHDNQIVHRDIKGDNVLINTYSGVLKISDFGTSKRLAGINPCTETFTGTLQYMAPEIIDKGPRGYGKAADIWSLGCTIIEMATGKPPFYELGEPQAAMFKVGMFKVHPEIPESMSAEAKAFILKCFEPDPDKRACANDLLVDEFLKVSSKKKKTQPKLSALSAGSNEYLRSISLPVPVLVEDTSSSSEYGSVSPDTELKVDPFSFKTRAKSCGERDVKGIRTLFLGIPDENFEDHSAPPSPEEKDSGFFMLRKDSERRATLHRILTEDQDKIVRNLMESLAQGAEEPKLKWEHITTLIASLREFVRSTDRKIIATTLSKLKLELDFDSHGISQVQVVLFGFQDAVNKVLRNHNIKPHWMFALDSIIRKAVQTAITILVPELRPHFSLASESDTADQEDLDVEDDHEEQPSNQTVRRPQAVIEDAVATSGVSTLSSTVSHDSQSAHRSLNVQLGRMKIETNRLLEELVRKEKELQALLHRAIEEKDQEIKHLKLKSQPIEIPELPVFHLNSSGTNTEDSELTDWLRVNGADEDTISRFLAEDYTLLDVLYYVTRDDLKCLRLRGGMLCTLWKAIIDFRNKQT
In short: as §1

[3] = molecular target: T3, scanMAX Kinase assay panel (Homo sapiens, UniProt Q9UKE5); conditions: TNIK; 1 uM; read-out: Percent Control (%)
T3 construct: purchased DiscoverX
T3 sequence (Q9UKE5 whole entry): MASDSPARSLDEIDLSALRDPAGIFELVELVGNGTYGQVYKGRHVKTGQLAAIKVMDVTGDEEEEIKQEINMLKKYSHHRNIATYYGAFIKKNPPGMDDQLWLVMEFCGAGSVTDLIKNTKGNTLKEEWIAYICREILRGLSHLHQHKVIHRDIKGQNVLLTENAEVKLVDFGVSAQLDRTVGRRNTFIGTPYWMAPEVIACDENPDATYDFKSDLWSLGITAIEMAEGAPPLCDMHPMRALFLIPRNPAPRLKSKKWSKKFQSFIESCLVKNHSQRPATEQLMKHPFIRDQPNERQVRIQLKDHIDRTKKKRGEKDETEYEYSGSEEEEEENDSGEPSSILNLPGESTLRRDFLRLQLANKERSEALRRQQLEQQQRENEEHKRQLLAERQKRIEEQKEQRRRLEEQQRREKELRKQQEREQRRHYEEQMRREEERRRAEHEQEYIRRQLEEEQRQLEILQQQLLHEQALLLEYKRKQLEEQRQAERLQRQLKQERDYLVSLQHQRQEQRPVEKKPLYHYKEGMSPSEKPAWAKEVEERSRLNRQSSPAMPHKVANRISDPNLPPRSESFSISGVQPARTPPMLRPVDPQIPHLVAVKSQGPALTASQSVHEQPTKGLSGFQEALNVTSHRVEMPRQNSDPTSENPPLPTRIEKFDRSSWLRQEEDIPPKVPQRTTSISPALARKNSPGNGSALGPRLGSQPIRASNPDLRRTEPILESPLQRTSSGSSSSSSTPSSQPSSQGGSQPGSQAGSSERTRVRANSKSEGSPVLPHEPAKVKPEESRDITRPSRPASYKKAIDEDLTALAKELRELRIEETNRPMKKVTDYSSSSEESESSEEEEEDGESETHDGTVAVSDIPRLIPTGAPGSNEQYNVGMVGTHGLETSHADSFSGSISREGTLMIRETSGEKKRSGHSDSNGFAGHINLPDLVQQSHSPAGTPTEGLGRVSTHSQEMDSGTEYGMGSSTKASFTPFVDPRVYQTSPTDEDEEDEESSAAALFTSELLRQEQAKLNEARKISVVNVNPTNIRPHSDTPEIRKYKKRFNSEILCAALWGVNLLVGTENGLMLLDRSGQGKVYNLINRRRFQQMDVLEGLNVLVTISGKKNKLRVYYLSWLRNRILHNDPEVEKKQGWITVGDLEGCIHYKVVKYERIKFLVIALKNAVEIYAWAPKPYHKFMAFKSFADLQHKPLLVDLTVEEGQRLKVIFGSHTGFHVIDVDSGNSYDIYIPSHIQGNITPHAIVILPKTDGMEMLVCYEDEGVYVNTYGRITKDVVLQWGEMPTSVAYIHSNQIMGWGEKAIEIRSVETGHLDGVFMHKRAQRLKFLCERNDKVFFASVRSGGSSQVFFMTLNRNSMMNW
In short: as §1

[4] = molecular target: T4, scanMAX Kinase assay panel (Homo sapiens, UniProt P36888, D835V); conditions: FLT3 (D835V); 1 uM; read-out: Percent Control (%)
T4 construct: purchased DiscoverX
T4 sequence (P36888 27-993 D835V): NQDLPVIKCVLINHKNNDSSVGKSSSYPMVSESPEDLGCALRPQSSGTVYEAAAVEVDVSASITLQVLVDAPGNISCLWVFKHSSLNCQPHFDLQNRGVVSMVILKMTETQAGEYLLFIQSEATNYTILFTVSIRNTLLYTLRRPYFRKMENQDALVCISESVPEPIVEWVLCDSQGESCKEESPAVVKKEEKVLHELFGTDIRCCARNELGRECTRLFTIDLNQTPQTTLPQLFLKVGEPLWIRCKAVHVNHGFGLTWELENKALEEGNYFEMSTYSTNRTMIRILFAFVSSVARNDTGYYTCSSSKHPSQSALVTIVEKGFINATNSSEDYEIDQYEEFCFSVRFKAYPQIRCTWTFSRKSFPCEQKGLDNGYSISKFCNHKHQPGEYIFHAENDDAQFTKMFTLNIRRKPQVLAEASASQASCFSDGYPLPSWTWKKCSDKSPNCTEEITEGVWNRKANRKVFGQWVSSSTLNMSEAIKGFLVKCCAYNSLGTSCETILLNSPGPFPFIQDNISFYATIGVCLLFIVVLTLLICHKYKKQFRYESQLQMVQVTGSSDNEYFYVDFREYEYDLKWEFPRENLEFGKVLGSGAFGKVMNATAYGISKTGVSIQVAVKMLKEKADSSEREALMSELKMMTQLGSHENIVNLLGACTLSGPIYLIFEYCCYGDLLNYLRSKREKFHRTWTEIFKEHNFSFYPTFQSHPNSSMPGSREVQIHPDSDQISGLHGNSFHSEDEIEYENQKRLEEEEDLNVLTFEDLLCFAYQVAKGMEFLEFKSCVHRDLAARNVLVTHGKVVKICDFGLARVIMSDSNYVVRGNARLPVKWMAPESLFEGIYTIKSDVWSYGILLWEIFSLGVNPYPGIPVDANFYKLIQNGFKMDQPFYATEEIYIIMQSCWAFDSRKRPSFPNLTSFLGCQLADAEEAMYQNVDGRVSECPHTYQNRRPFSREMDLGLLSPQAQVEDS
In short: as §1

[5] = molecular target: T5, scanMAX Kinase assay panel (Homo sapiens, UniProt P00519, Y253F); conditions: ABL1 (Y253F)-phosphorylated; 1 uM; read-out: Percent Control (%)
T5 construct: purchased DiscoverX
In short: as §1

Row | SMILES | remaining binding at 1 µM [1] [%] | remaining binding at 1 µM [2] [%] | remaining binding at 1 µM [3] [%] | remaining binding at 1 µM [4] [%] | remaining binding at 1 µM [5] [%]
1 | Cc1ccc(C(=O)Nc2ccc(CN3CCN(C)CC3)c(C(F)(F)F)c2)cc1C#Cc1cnc2c(Nc3cnn(C)c3)cccn12 [Example 1, 4-methyl-3-((8-((1-methyl-1H-pyrazol-4-yl)amino)imidazo[1,2-a]pyridin-3-yl)ethynyl)-N-(4-((4-methylpiperazin-1-yl)methyl)-3-(trifluoromethyl)phenyl)benzamide] | 90 | 100 | 11 | 0 | 0
2 | Cc1cn(-c2cc(NC(=O)c3ccc(C)c(C#Cc4cnc5c(Nc6cnn(C)c6)cccn45)c3)cc(C(F)(F)F)c2)cn1 [Example 12, 4-methyl-N-(3-(4-methyl-1H-imidazol-1-yl)-5-(trifluoromethyl)phenyl)-3-((8-((1-methyl-1H-pyrazol-4-yl)amino)imidazo[1,2-a]pyridin-3-yl)ethynyl)benzamide] | 86 | 95 | 17 | 27 | 10
3 | Cc1ccc(NC(=O)C2(C(=O)Nc3ccc(F)cc3)CC2)cc1C#Cc1cnc2c(Nc3cnn(C(C)C)c3)cccn12 [Example 78] | 100 | 100 | 88 | 87 | 88
